Test systems include U251 glioblastoma; OVCAR-3 ovarian; HOP-92 NSCLC; HCC-2998 colon; RPMI-8226 leukemia; K-562 leukemia; NCI-H460 NSCLC; HT29 colon; KM12 colon; NCI-H522 lung; CCRF-CEM leukemia; A549 NSCLC.
Holding throughout (assay): NCI tumour cell line growth inhibition, 384-well format

The structures appear in SMILES notation.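 GI50 is the concentration that inhibits growth by half. Definition used: TGI = concentration required for complete inhibition of growth.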

Consider `Nc1nc2cc(-c3ccc4ncc(C(=O)N5CCOCC5)n4c3)ccc2o1`, for which the GI50 in the test with U251 glioblastoma is over 74.7 µM; in the test with OVCAR-3 ovarian it was 7.73 µM; in the test on HOP-92 NSCLC it was 2.2 µM; in the test on HCC-2998 colon, 12.4 µM; in the test on RPMI-8226 leukemia, 1.58 µM; in the test with K-562 leukemia, over 86 µM. The GI50 is 2.77 µM with NCI-H460 NSCLC; 8.1 µM with HT29 colon; 28.7 µM in the test with KM12 colon; 4.05 µM in the test with NCI-H522 lung; 7.44 µM with CCRF-CEM leukemia; 9.11 µM in the test on A549 NSCLC. The TGI in the test with U251 glioblastoma is over 100 µM; with OVCAR-3 ovarian, over 100 µM; in the test on HOP-92 NSCLC, 18.5 µM; in the test with HCC-2998 colon, over 100 µM; with RPMI-8226 leukemia it was 4.55 µM; in the test with K-562 leukemia, over 100 µM. Also, the TGI was over 100 µM in the test on NCI-H460 NSCLC; over 100 µM in the test on HT29 colon; over 100 µM in the test on KM12 colon; over 74.5 µM in the test with NCI-H522 lung; over 100 µM in the test on CCRF-CEM leukemia; over 100 µM in the test on A549 NSCLC.

(Values after PubChem BioAssay (NCI).)
